Entries after “also recorded” stand apart in the source; their conditions may differ.
Test system: rats with inflammation of the dura
Experiment: Rat model of migraine pain
Format: in vivo
Details: oral 30 mg/kg

CN1CCC[C@@H]1CCn1ccc2ccc(NC(=N)c3cccs3)cc21.Cl.Cl [(R)-8]
tactile hyperesthesia (allodynia) of the hindpaw (15 min prior to the inflammatory soup, 30 mg/kg): attenuated the development of allodynia between 2 and 6 h post-dose; also recorded: attenuates the tactile hyperesthesia (allodynia); also recorded: reduce tactile hyperesthesia (allodynia)
time of maximum effect on allodynia (post-dose): 4 h

From paper PMC5699210 (Bioorganic & medicinal chemistry letters, 2011)
